Assay results reported in patent publication US12503452B2 (Curza Global, LLC, priority 2019, dated 2025).
Counter-ions that a name gives are not always drawn. Like-named read-outs stand apart in the source and are kept apart here.

Columns and labels:
[1] = tested on: S. aureus (Sa); test: Broth microdilution minimum inhibitory concentration (MIC); assay type: cell-based; conditions: Staphylococcus aureus, read-out: Sa + bicarb MIC
Outline: (§1)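 Two-fold compound series, 8 points in triplicate; medium CAMHB ± NaHCO3 (6.25 or 25 mM final) or ± 0–50% heat-inactivated human serum; inoculum 5×10^4 CFU/well; growth-method 0.5 McFarland suspensions; modified CLSI M07-A9.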

[2] = tested on: P. aeruginosa (Pa); test: as above; assay type: cell-based; conditions: Pseudomonas aeruginosa, read-out: Pa MIC + bicarb
Outline: as §1

[3] = tested on: A. baumannii (Ab); test: as above; assay type: cell-based; conditions: Acinetobacter baumannii, read-out: Ab + bicarb MIC
Outline: as §1

[4] = tested on: E. faecalis (Ef); test: as above; assay type: cell-based; conditions: Enterococcus faecalis, read-out: Ef + bicarb MIC
Outline: as §1

[5] = tested on: E. coli (Ec); test: as above; assay type: cell-based; conditions: Escherichia coli, read-out: E. coli + bicarb MIC
Outline: as §1

[6] = target: Rabbit Reticulocyte Lysate (eukaryotic protein synthesis); test: Rabbit reticulocyte lysate luciferase assay (inhibition of eukaryotic protein synthesis); assay type: biochemical; conditions: class by IC50 or % inhibition @ 1 μM, read-out: Rabbit reticulocyte IC50 (μM/% inhib.)
Outline: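 Compounds were tested in 8-point 2-fold dilution series for blocking luciferase synthesis in nuclease-treated rabbit reticulocyte lysate (30° C., 90 minutes). Luminescence read-out, corrected by no-RNA background, was expressed as % inhibition against water-only reactions.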

[7] = tested on: E. coli S30 extract (bacterial protein synthesis); test: E. coli S30 extract coupled transcription-translation luciferase assay (inhibition of bacterial protein synthesis); assay type: biochemical; conditions: class by IC50 or % inhibition @ 1 μM, read-out: S30 IC50 (μM/% inhib.)
Outline: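 Luminescent read-out of luciferase made from pBESTluc DNA by E. coli S30 extract after 1 h at 37 °C with compound in an 8-point 2-fold series. Background came from no-DNA reactions. Percent inhibition was calculated against water-only controls.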

[8] = S. aureus, growth medium supplemented with sodium bicarbonate
[9] = P. aeruginosa, growth medium supplemented with sodium bicarbonate
[10] = A. baumannii, growth medium supplemented with sodium bicarbonate
[11] = E. faecalis, growth medium supplemented with sodium bicarbonate
[12] = E. coli, growth medium supplemented with sodium bicarbonate
[13] = S. aureus, growth medium with sodium bicarbonate
[14] = P. aeruginosa, growth medium with sodium bicarbonate
[15] = A. baumannii, growth medium with sodium bicarbonate
[16] = E. faecalis, growth medium with sodium bicarbonate
[17] = E. coli, growth medium with sodium bicarbonate

Cc1cc(-n2ccc(NC(=O)N3CCN(C(=O)[C@@](C)(N)CO)CC3)nc2=O)ccc1CCN1CCCC(N)CC1 (stereo partly drawn) [Compound 139]
MIC [1, 8]: < 8 µg/mL | MIC [2, 9]: 8 to 32 µg/mL | MIC [3, 10]: > 32 µg/mL | MIC [4, 11]: < 8 µg/mL | MIC [5, 12]: < 8 µg/mL | IC50 [6]: > 1 µM | IC50 [7]: < 0.5 µM

CC(Cc1ccc(-n2ccc(NC(=O)N3CCN(C(=O)C(C)(C)N)CC3)nc2=O)cc1)N[C@H]1CC[C@H](N)CC1 (stereo partly drawn) [Compound 171]
MIC [1, 13]: 8 to 32 µg/mL | MIC [2, 14]: > 32 µg/mL | MIC [3, 15]: > 32 µg/mL | MIC [4, 16]: > 32 µg/mL | MIC [5, 17]: < 8 µg/mL | IC50 [6]: > 1 µM | IC50 [7]: > 1 µM

CC(C)(N)C(=O)N1CCN(C(=O)Nc2ccn(-c3ccc(CCNCC4CNC4)cc3)c(=O)n2)CC1 [Compound 345, hydrochloride salt]
MIC [1]: > 32 µg/mL | MIC [2]: > 32 µg/mL | MIC [3]: > 32 µg/mL | MIC [4]: > 32 µg/mL | MIC [5]: > 32 µg/mL | IC50 [6]: > 1 µM | IC50 [7]: 0.5 to 1 µM

CCN(C[C@H]1C[C@H](N)C1)C(C)Cc1ccc(-n2ccc(NC(=O)N3CCN(C(=O)C(C)(C)N)CC3)nc2=O)cc1 (stereo partly drawn) [Compound 158]
MIC [1, 8]: < 8 µg/mL | MIC [2, 9]: 8 to 32 µg/mL | MIC [3, 10]: > 32 µg/mL | MIC [4, 11]: < 8 µg/mL | MIC [5, 12]: < 8 µg/mL | IC50 [6]: > 1 µM | IC50 [7]: < 0.5 µM

CC(C)(N)C(=O)N1CCN(C(=O)Nc2ccn(-c3ccc(CCNC4CCCNCC4)cc3)c(=O)n2)CC1 (stereo not drawn) [Compound 30]
MIC [1, 8]: < 8 µg/mL | MIC [2, 9]: > 32 µg/mL | MIC [3, 10]: > 32 µg/mL | MIC [4, 11]: > 32 µg/mL | MIC [5, 12]: < 8 µg/mL | IC50 [6]: > 1 µM | IC50 [7]: < 0.5 µM

CC(N)C1CCN(Cc2ccc(-n3ccc(NC(=O)N4CCN(C(=O)[C@@](C)(N)CO)[C@H](C)C4)nc3=O)cc2)CC1 (stereo partly drawn) [Compound 70]
MIC [1, 8]: < 8 µg/mL | MIC [2, 9]: > 32 µg/mL | MIC [3, 10]: > 32 µg/mL | MIC [4, 11]: < 8 µg/mL | MIC [5, 12]: < 8 µg/mL | IC50 [6]: > 1 µM | IC50 [7]: < 0.5 µM

CC(C)(N)C(=O)N1CCN(C(=O)Nc2ccn(-c3ccc(CC(=O)N4CCC(N)CC4)cc3)c(=O)n2)CC1 [Compound 269]
MIC [1, 13]: > 32 µg/mL | MIC [2, 14]: > 32 µg/mL | MIC [3, 15]: > 32 µg/mL | MIC [4, 16]: > 32 µg/mL | MIC [5, 17]: 8 to 32 µg/mL | IC50 [6]: > 1 µM | IC50 [7]: > 1 µM

C[C@](N)(CO)C(=O)N1CCN(C(=O)Nc2ccn(-c3ccc(CN(CC4CC4)C4CCC(N)CC4)cc3)c(=O)n2)CC1 (stereo partly drawn) [Compound 277]
MIC [1, 13]: < 8 µg/mL | MIC [2, 14]: > 32 µg/mL | MIC [3, 15]: > 32 µg/mL | MIC [4, 16]: < 8 µg/mL | MIC [5, 17]: < 8 µg/mL | IC50 [6]: > 1 µM | IC50 [7]: < 0.5 µM

CCN(Cc1ccc(-n2ccc(NC(=O)N3CCN(C(=O)C(C)(C)N)CC3)nc2=O)cc1)[C@H]1CC[C@H](N)CC1 [Compound 119]
MIC [1, 8]: < 8 µg/mL | MIC [2, 9]: < 8 µg/mL | MIC [3, 10]: < 8 µg/mL | MIC [4, 11]: < 8 µg/mL | MIC [5, 12]: < 8 µg/mL | IC50 [6]: > 1 µM | IC50 [7]: < 0.5 µM

NC1CCN(Cc2ccc(-n3ccc(NC(=O)N4CC5(CC(N)C5)C4)nc3=O)cc2)CC1 [Compound 289]
MIC [1, 13]: < 8 µg/mL | MIC [2, 14]: > 32 µg/mL | MIC [3, 15]: > 32 µg/mL | MIC [4, 16]: > 32 µg/mL | MIC [5, 17]: < 8 µg/mL | IC50 [6]: > 1 µM | IC50 [7]: 0.5 to 1 µM

CC(C)(N)C(=O)N1CCN(C(=O)Nc2ccn(-c3ccc(CN4CC[C@H](N)[C@@H](F)C4)cc3)c(=O)n2)CC1 [Compound 344, hydrochloride salt]
MIC [1]: > 32 µg/mL | MIC [2]: > 32 µg/mL | MIC [3]: > 32 µg/mL | MIC [4]: > 32 µg/mL | MIC [5]: > 32 µg/mL | IC50 [6]: > 1 µM | IC50 [7]: > 1 µM

CC(C)(N)C(=O)N1CCN(C(=O)Nc2ccn(-c3ccc(C[C@@H](N)C(=O)N4CCCC(N)CC4)cc3)c(=O)n2)CC1 (stereo partly drawn) [Compound 143]
MIC [1, 8]: > 32 µg/mL | MIC [2, 9]: > 32 µg/mL | MIC [3, 10]: > 32 µg/mL | MIC [4, 11]: > 32 µg/mL | MIC [5, 12]: > 32 µg/mL | IC50 [6]: > 1 µM | IC50 [7]: > 1 µM
